Patent US20250179078A1, “INHIBITORS OF NLRP3” (PTC THERAPEUTICS, INC., priority 2022, published 2025)

biological target: T1, NLRP3 (Homo sapiens, UniProt Q96P20); assay: IL-1β Secretion Assay (NLRP3-dependent IL1β secretion in THP1 cells); format: cell-based; conditions: PMA-differentiated THP-1 cells; compounds incubated 20 h; 2.5 μM Nigericin 3 h; HTRF IL-1β readout; read-out: IC50 IL-1β Inhibition
T1 construct: host or cells: THP-1 cells differentiated with PMA
Outline: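 IL-1β in conditioned media, measured by HTRF after 3 h 2.5 μM nigericin stimulation, gave % inhibition fitted logistically for IC50. Before that, PMA-differentiated (100 ng/mL, 24 h) THP-1 cells were preincubated 20 h with 7 compound concentrations (3-fold serial, DMSO 1:200).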

T1 sequence (Q96P20 whole entry): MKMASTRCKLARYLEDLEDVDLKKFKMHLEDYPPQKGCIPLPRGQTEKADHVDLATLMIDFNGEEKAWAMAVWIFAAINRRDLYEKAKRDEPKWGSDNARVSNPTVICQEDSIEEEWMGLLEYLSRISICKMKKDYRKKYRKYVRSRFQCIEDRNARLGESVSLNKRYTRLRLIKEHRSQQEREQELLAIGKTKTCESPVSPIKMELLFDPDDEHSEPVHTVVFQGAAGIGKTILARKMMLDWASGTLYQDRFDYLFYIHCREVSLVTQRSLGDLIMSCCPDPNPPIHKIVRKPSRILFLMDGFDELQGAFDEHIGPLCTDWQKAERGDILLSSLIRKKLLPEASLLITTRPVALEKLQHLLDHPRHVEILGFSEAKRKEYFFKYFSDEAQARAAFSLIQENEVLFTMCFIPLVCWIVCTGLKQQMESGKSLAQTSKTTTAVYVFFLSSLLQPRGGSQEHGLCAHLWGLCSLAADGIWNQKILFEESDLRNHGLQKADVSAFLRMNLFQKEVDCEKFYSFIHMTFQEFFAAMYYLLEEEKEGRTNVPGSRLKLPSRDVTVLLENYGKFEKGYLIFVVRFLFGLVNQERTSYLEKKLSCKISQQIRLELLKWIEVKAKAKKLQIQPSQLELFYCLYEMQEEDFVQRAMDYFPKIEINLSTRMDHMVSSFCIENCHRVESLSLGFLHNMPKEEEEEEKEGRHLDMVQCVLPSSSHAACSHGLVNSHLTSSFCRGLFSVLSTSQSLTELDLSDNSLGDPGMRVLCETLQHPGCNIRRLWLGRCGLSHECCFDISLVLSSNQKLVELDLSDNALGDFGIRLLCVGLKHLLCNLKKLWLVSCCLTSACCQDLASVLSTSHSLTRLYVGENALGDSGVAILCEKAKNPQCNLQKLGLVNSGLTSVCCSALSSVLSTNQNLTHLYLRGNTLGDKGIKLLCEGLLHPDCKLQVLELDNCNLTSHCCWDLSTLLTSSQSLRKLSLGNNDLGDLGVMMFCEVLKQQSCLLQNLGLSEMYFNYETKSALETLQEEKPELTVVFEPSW

| Structure (SMILES) | IC50 |
| --- | --- |
| COc1ccc(-c2nnc(NC3CCOCC3)n3cccc23)c(OC(F)(F)F)c1 [Compound 67, 1-[4-methoxy-2-(trifluoromethoxy)phenyl]-N-(oxan-4-yl)pyrrolo[1,2-d][1,2,4]triazin-4-amine] | 1 to 10 nM |
| CN1CCC[C@@H](Nc2nnc(-c3ccc(C(F)(F)F)cc3F)c3cccn23)C1 [Compound 19, 1-[2-fluoro-4-(trifluoromethyl)phenyl]-N-[(3R)-1-methylpiperidin-3-yl]pyrrolo[1,2-d][1,2,4]triazin-4-amine] | 10 to 100 nM |
| CCC(=O)c1ccc(-c2nnc(N[C@@H]3CCCN(C)C3)n3cccc23)c(OC(F)F)c1 [Compound 95, 1-[3-(difluoromethoxy)-4-(4-{[(3R)-1-methylpiperidin-3-yl]amino}pyrrolo[1,2-d][1,2,4]triazin-1-yl)phenyl]propan-1-one] | 1 to 10 nM |
| Cc1cc2c(-c3ccc(Cl)cc3OC(F)F)nnc(N[C@@H]3CCCN(C)C3)n2c1 [Compound 13, 1-[4-chloro-2-(difluoromethoxy)phenyl]-7-methyl-N-[(3R)-1-methylpiperidin-3-yl]pyrrolo[1,2-d][1,2,4]triazin-4-amine] | 1 to 10 nM |
| COc1ccc(-c2nnc(N[C@@H]3CCC[C@H](O)C3)n3cccc23)c(OC(F)(F)F)c1 [Compound 62, (1S,3R)-3-({1-[4-methoxy-2-(trifluoromethoxy)phenyl]pyrrolo[1,2-d][1,2,4]triazin-4-yl}amino)cyclohexan-1-ol] | 10 to 100 nM |
| CCN1CCC[C@@H](Nc2nnc(-c3ccc(C(F)(F)F)cc3OC3CC3)c3cccn23)C1 [Compound 178, 1-[2-(cyclopropyloxy)-4-(trifluoromethyl)phenyl]-N-[(3R)-1-ethylpiperidin-3-yl]pyrrolo[1,2-d][1,2,4]triazin-4-amine] | 1 to 10 nM |
| OCCN1CCC[C@@H](Nc2nnc(-c3ccc(C4CC4)cc3OC(F)F)c3cncn23)C1 [Compound 185, 2-[(3R)-3-({1-[4-cyclopropyl-2-(difluoromethoxy)phenyl]imidazo[1,5-d][1,2,4]triazin-4-yl}amino)piperidin-1-yl]ethan-1-ol] | 1 to 10 nM |
| OC[C@H]1C[C@@H](Nc2nnc(-c3ccc(C(F)(F)F)cc3OC(F)(F)F)c3cccn23)C1 [Compound 141, [(1s,3s)-3-({1-[2-(trifluoromethoxy)-4-(trifluoromethyl)phenyl]pyrrolo[1,2-d][1,2,4]triazin-4-yl}amino)cyclobutyl]methanol] | 1 to 10 nM |
| COc1ccc(-c2nnc(N[C@@H]3CCCN(C)C3)n3cccc23)c(C2CC2)c1 [Compound 27, 1-(2-cyclopropyl-4-methoxyphenyl)-N-[(3R)-1-methylpiperidin-3-yl]pyrrolo[1,2-d][1,2,4]triazin-4-amine] | 1 to 10 nM |
| CC(Nc1nnc(-c2ccc(C(F)(F)F)cc2CC(F)(F)F)c2cccn12)c1cccc(O)c1 (stereo not drawn) [Compound 96, 3-[1-({1-[2-(2,2,2-trifluoroethyl)-4-(trifluoromethyl)phenyl]pyrrolo[1,2-d][1,2,4]triazin-4-yl}amino)ethyl]phenol] | 1 to 10 nM |
| CC(Nc1nnc(-c2ccc(C(F)(F)F)cc2OC(F)F)c2cccn12)c1cccc(O)c1 (stereo not drawn) [Compound 89, 3-[1-({1-[2-(difluoromethoxy)-4-(trifluoromethyl)phenyl]pyrrolo[1,2-d][1,2,4]triazin-4-yl}amino)ethyl]phenol] | 1 to 10 nM |
| CCN1CCC[C@@H](Nc2nnc(-c3ccc(OC)cc3C(F)(F)F)c3cncn23)C1 [Compound 212, N-[(3R)-1-ethylpiperidin-3-yl]-1-[4-methoxy-2-(trifluoromethyl)phenyl]imidazo[1,5-d][1,2,4]triazin-4-amine] | < 1 nM |
| CN1CCC[C@@H](Nc2nnc(-c3ccc(C(F)(F)F)cc3CC(F)(F)F)c3cncn23)C1 [Compound 2, N-[(3R)-1-methylpiperidin-3-yl]-1-[2-(2,2,2-trifluoroethyl)-4-(trifluoromethyl)phenyl]imidazo[1,5-d][1,2,4]triazin-4-amine] | < 1 nM |
| O[C@@H]1CCCC[C@H]1Nc1nnc(-c2ccc(OC(F)F)cc2OC(F)(F)F)c2cccn12 [Compound 168, (1R,2R)-2-({1-[4-(difluoromethoxy)-2-(trifluoromethoxy)phenyl]pyrrolo[1,2-d][1,2,4]triazin-4-yl}amino)cyclohexan-1-ol] | 1 to 10 nM |
| CN1CCC[C@@H](Nc2nnc(-c3ccc(C(F)(F)F)cc3OC(F)(F)F)c3cccn23)C1 [Compound 140, N-[(3R)-1-methylpiperidin-3-yl]-1-[2-(trifluoromethoxy)-4-(trifluoromethyl)phenyl]pyrrolo[1,2-d][1,2,4]triazin-4-amine] | < 1 nM |
| COc1ccc(-c2nnc(N[C@@H]3CCC[C@H](O)C3)n3cncc23)c(OC(F)(F)F)c1 [Compound 222, (1S,3R)-3-({1-[4-methoxy-2-(trifluoromethoxy)phenyl]imidazo[1,5-d][1,2,4]triazin-4-yl}amino)cyclohexan-1-ol] | 1 to 10 nM |
| FC(F)(F)c1ccc(-c2nnc(N[C@@H]3CCCN(C4CCCOC4)C3)n3cccc23)c(C(F)(F)F)c1 (stereo partly drawn) [Compound 6, 1-[2,4-bis(trifluoromethyl)phenyl]-N-[(3R)-1-(oxan-3-yl)piperidin-3-yl]pyrrolo[1,2-d][1,2,4]triazin-4-amine] | 10 to 100 nM |
| Cc1ccc(-c2nnc(N[C@@H]3CCCN(C)C3)n3cc(C)cc23)c(C(F)F)c1 [Compound 23, 1-[2-(difluoromethyl)-4-methylphenyl]-7-methyl-N-[(3R)-1-methylpiperidin-3-yl]pyrrolo[1,2-d][1,2,4]triazin-4-amine] | 1 to 10 nM |
| COc1ccc(-c2nnc(NCc3nccn3C)n3cccc23)c(OC(F)(F)F)c1 [Compound 69, 1-[4-methoxy-2-(trifluoromethoxy)phenyl]-N-[(1-methyl-1H-imidazol-2-yl)methyl]pyrrolo[1,2-d][1,2,4]triazin-4-amine] | 10 to 100 nM |
| O[C@H]1CCC[C@@H](Nc2nnc(-c3ccc(C(F)(F)F)cc3C(F)(F)F)c3cncn23)C1 [Compound 215, (1S,3R)-3-({1-[2,4-bis(trifluoromethyl)phenyl]imidazo[1,5-d][1,2,4]triazin-4-yl}amino)cyclohexan-1-ol] | 10 to 100 nM |

Further lines, results first:

| IC50 | Structure (SMILES) |
| --- | --- |
| 1 to 10 nM | CCN1CCC[C@@H](Nc2nnc(-c3ccc(Cl)cc3Cl)c3cc(C)nn23)C1 [Compound 376, 4-(2,4-dichlorophenyl)-N-[(3R)-1-ethylpiperidin-3-yl]-2-methylpyrazolo[1,5-d][1,2,4]triazin-7-amine] |
| 1 to 10 nM | CCN1CCC[C@@H](Nc2nnc(-c3ccc(OC)cc3C3CC3)c3cc(C)nn23)C1 [Compound 379, 4-(2-cyclopropyl-4-methoxyphenyl)-N-[(3R)-1-ethylpiperidin-3-yl]-2-methylpyrazolo[1,5-d][1,2,4]triazin-7-amine] |
| 1 to 10 nM | COc1ccc(-c2nnc(NC3CCNC3=O)n3cncc23)c(OC(F)F)c1 (stereo not drawn) [Compound 269, 3-({1-[2-(difluoromethoxy)-4-methoxyphenyl]imidazo[1,5-d][1,2,4]triazin-4-yl}amino)pyrrolidin-2-one] |
| 1 to 10 nM | Cc1ccc(-c2nnc(N[C@H]3C[C@@](C)(O)C3)n3cncc23)c(CC(F)(F)F)c1 [Compound 318, (1s,3s)-1-methyl-3-({1-[4-methyl-2-(2,2,2-trifluoroethyl)phenyl]imidazo[1,5-d][1,2,4]triazin-4-yl}amino)cyclobutan-1-ol] |
| 1 to 10 nM | Cc1ncn2c(N[C@@H]3CCCC[C@H]3O)nnc(-c3ccc(C(F)(F)F)cc3CC(F)(F)F)c12 [Compound 280, (1R,2R)-2-({8-methyl-1-[2-(2,2,2-trifluoroethyl)-4-(trifluoromethyl)phenyl]imidazo[1,5-d][1,2,4]triazin-4-yl}amino)cyclohexan-1-ol] |
| 1 to 10 nM | COc1ccc(-c2nnc(N[C@@H]3CCOC[C@H]3O)n3cncc23)c(OC(F)F)c1 [Compound 268, (3S,4R)-4-({1-[2-(difluoromethoxy)-4-methoxyphenyl]imidazo[1,5-d][1,2,4]triazin-4-yl}amino)oxan-3-ol] |
| < 1 nM | OCCN1CCC[C@@H](Nc2nnc(-c3ccc(C(F)(F)F)cc3OC(F)(F)F)c3cncn23)C1 [Compound 239, 2-[(3R)-3-({1-[2-(trifluoromethoxy)-4-(trifluoromethyl)phenyl]imidazo[1,5-d][1,2,4]triazin-4-yl}amino)piperidin-1-yl]ethan-1-ol] |
| ≥ 300 nM | COc1ccc(-c2nnc(N[C@H]3CCCC[C@]3(C)O)n3cncc23)c(OC(F)(F)F)c1 (single isomer, unassigned) [Compound 310] |
| < 1 nM | COc1ccc(-c2nnc(N[C@@H]3CCCN(CCO)C3)n3cncc23)c(CC(F)(F)F)c1 [Compound 278, 2-[(3R)-3-({1-[4-methoxy-2-(2,2,2-trifluoroethyl)phenyl]imidazo[1,5-d][1,2,4]triazin-4-yl}amino)piperidin-1-yl]ethan-1-ol] |
| 1 to 10 nM | CC(Nc1nnc(-c2ccc(C(F)(F)F)cc2OC(F)(F)F)c2cncn12)c1cccc(O)c1 (stereo not drawn) [Compound 323, 3-[1-({1-[2-(trifluoromethoxy)-4-(trifluoromethyl)phenyl]imidazo[1,5-d][1,2,4]triazin-4-yl}amino)ethyl]phenol] |
| 1 to 10 nM | OC[C@H]1C[C@@H](Nc2nnc(-c3ccc(C4CC4)cc3CC(F)(F)F)c3cncn23)C1 [Compound 349, [(1s,3s)-3-({1-[4-cyclopropyl-2-(2,2,2-trifluoroethyl)phenyl]imidazo[1,5-d][1,2,4]triazin-4-yl}amino)cyclobutyl]methanol] |
| 10 to 100 nM | COCC1CC(Nc2nnc(-c3ccc(OC)cc3CC(F)(F)F)c3cncn23)C1 (stereo not drawn) [Compound 326, N-[3-(methoxymethyl)cyclobutyl]-1-[4-methoxy-2-(2,2,2-trifluoroethyl)phenyl]imidazo[1,5-d][1,2,4]triazin-4-amine] |
| < 1 nM | Cc1ncn2c(N[C@@H]3CCCN(C)C3)nnc(-c3ccc(C(F)(F)F)cc3CC(F)(F)F)c12 [Compound 279, 8-methyl-N-[(3R)-1-methylpiperidin-3-yl]-1-[2-(2,2,2-trifluoroethyl)-4-(trifluoromethyl)phenyl]imidazo[1,5-d][1,2,4]triazin-4-amine] |
